± gives the expanded uncertainty stated by the source.
How the values were obtained:
[1] = refractive index (Na D-line) (dimensionless); conditions: 293.1 K; 101.33 kPa; Liquid; Standard Abbe refractometry
[2] = Liquid

SMILES	refractive index [1]	vapor or sublimation pressure ([2]; 293.15 K) [kPa]	vapor or sublimation pressure ([2]; 303.15 K) [kPa]	vapor or sublimation pressure ([2]; 313.15 K) [kPa]	vapor or sublimation pressure ([2]; 323.15 K) [kPa]	vapor or sublimation pressure ([2]; 333.15 K) [kPa]	vapor or sublimation pressure ([2]; 343.15 K) [kPa]	vapor or sublimation pressure ([2]; 353.15 K) [kPa]	vapor or sublimation pressure ([2]; 363.15 K) [kPa]	vapor or sublimation pressure ([2]; 369.15 K) [kPa]	vapor or sublimation pressure ([2]; 323.1 K) [kPa]	vapor or sublimation pressure ([2]; 333.05 K) [kPa]	vapor or sublimation pressure ([2]; 343 K) [kPa]	vapor or sublimation pressure ([2]; 352.9 K) [kPa]	vapor or sublimation pressure ([2]; 358.15 K) [kPa]	vapor or sublimation pressure ([2]; 358.45 K) [kPa]	vapor or sublimation pressure ([2]; 361.15 K) [kPa]	vapor or sublimation pressure ([2]; 364.15 K) [kPa]	vapor or sublimation pressure ([2]; 367.15 K) [kPa]
CC(Cl)CCl (stereo not drawn) [1,2-dichloropropane]	1.4383 ± 0.0007																		
CC(O)CCl (stereo not drawn) [1-chloro-2-propanol]	1.4377 ± 0.0007	1.199 ± 0.99	2.225 ± 1.1	3.981 ± 1.3	6.662 ± 1.7	10.88 ± 2.4	17.2 ± 3.3	26.48 ± 4.7	39.8 ± 6.7	50.1 ± 8.2									
CC(C)(Cl)OC(C)(C)Cl [propane, 2,2'-oxybis[2-chloro-]	1.4473 ± 0.0007		0.24 ± 0.18	0.564 ± 0.34							0.867 ± 0.49	1.28 ± 0.7	1.919 ± 0.69	2.822 ± 0.78	3.673 ± 0.87	3.348 ± 0.83	4.237 ± 0.92	4.806 ± 0.97	5.477 ± 1

Source: the NIST ThermoML archive (doi:10.1021/je800122x)
